This is an account of results in publication PMC10604324, “Implications for Combination Therapy of Selective Monoamine Reuptake Inhibitors on Dopamine Transporters” (Biomedicines, 2023).

Molecules are shown by their SMILES. Values joined by “and” are separate entries in the source; they are usually repeats but may differ in a detail not shown here. Equal entries are not always repeated. Where two headings read alike, the source gives them in different places.

One experiment deals with human DAT (Homo sapiens, UniProt Q01959). Put plainly: Fluorescence-based neurotransmitter uptake assay, HEK-hDAT cells. The format is cell-based.
human DAT, sequence (Q01959 whole entry): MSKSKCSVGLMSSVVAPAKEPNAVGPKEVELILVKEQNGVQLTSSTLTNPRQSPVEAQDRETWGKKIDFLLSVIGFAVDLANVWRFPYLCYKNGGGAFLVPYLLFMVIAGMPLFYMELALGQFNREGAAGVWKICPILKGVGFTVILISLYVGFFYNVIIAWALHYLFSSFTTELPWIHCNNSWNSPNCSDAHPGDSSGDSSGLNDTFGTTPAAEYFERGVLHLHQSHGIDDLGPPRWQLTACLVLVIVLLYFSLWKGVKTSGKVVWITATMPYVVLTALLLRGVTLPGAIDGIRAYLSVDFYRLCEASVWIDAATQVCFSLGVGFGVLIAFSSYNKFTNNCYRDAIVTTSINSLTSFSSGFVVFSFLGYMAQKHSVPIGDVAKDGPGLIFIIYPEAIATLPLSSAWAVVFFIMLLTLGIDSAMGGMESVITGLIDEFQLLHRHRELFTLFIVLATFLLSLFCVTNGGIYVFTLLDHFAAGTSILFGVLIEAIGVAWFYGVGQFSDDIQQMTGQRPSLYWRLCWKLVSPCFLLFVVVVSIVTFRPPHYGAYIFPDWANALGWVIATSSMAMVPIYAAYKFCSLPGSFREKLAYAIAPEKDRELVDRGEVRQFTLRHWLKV
The subject of a further experiment is SERT. To be noted: cited from earlier work.
The subject of experiment [1] is DAT. Particulars: cited from earlier work.
In another experiment the test system is NET. Particulars: cited from earlier work.
Experiment [2] concerns DAT. Details: method as in PMID 10997723. Particulars: effect of isethionate on mazindol binding; cited from earlier work.
Where [3] appears, read: DAT inhibition by monovalent ions.
[4] abbreviates: read-out: Literature IC50, substrate uptake assay, ref M.J. Hansard, et al., J Pharmacol Exp Ther 303 (2002) 952-958.
[5] abbreviates: read-out: Literature IC50, substrate uptake assay, ref A.J. Eshleman, et al., J Pharmacol Exp Ther 289 (1999) 877-885.

As usually defined, the IC50 is the midpoint of a concentration-inhibition curve. Regarding `O=C(O)[C@H](O)[C@@H](O)[C@H](O)[C@H](O)CO` [Gluconate], at human DAT (setting [3]), the “Hill coefficient (h)” value turned out to be 1.2 ± 0.3 and inhibition was half-maximal at 1400 ± 200 µM (IC50).
Consider `Fc1ccc(C(OCCN2CCN(CCCc3ccccc3)CC2)c2ccc(F)cc2)cc1` [Vanoxerine], for which the IC50 in the experiment with SERT (setting [4]) was […]; in the experiment with DAT [1] (setting [4]) it was […]; in the experiment on NET (setting [4]) it was […].
With `O=S(=O)(O)CCO` [Isethionate], the “reduction of the binding of a DAT inhibitor, mazindol” value with DAT [2] was “more than 50%”. Besides, at human DAT (setting [3]), the “Hill coefficient (h)” value is on record as 0.8 ± 0.2 and half-maximal inhibition (IC50) required 3300 ± 600 µM.
With `CNC[C@H](O)[C@H](O)[C@H](O)[C@H](O)CO` [NMDG], at human DAT (setting [3]), the “Hill coefficient (h)” value was 11 and 10.6 ± 3.8; the IC50 worked out at 3700 ± 200 µM.
In the case of `CNCCC(Oc1ccccc1OC)c1ccccc1` (stereo not drawn) [Nisoxetine], the IC50 in the experiment with SERT (setting [5]) was […]; in the experiment with DAT [1] (setting [5]), […]; in the experiment on NET (setting [5]) it was 0.0053 µM.
As to `C[N+](C)(C)CCO` [Choline], at human DAT, the “Hill coefficient (h)” value is listed as 1.4 ± 0.2. Moreover, on human DAT (setting [3]), the IC50 was 37000 µM and 36600 µM.
